Assays:
Test in all cases: relative viability (nuclei count vs DMSO), 5 days (fraction); higher = more cells survive
Imatinib + Pictilisib = compound: Cc1ccc(NC(=O)c2ccc(CN3CCN(C)CC3)cc2)cc1Nc1nccc(-c2cccnc2)n1 [Imatinib] + CS(=O)(=O)N1CCN(Cc2cc3nc(-c4cccc5[nH]ncc45)nc(N4CCOCC4)c3s2)CC1 [Pictilisib] (partner 1 µM)
Summary of the method: (§1)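 The day after seeding in 1536-well plates, lung cancer cell lines were treated by pin tool with a single drug, or with a fixed anchor-drug dose together with five library-drug doses (not always all listed) in √10 steps. After 5 days, a combined fix-and-stain solution (final 0.05% Triton X-100, 1% formaldehyde, 1 ug/ml Hoechst) was added. Nuclei counted on 4× images gave relative viability as treated counts over vehicle counts, reported as the median of duplicate plates.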

Imatinib + Bortezomib = compound: Cc1ccc(NC(=O)c2ccc(CN3CCN(C)CC3)cc2)cc1Nc1nccc(-c2cccnc2)n1 [Imatinib] + CC(C)C[C@H](NC(=O)[C@H](Cc1ccccc1)NC(=O)c1cnccn1)B(O)O [Bortezomib] (partner 0.002 µM)
Summary of the method: as §1

Imatinib + Lapatinib = compound: Cc1ccc(NC(=O)c2ccc(CN3CCN(C)CC3)cc2)cc1Nc1nccc(-c2cccnc2)n1 [Imatinib] + CS(=O)(=O)CCNCc1ccc(-c2ccc3ncnc(Nc4ccc(OCc5cccc(F)c5)c(Cl)c4)c3c2)o1 [Lapatinib] (partner 2 µM)
Summary of the method: as §1

Imatinib + Pemetrexed = compound: Cc1ccc(NC(=O)c2ccc(CN3CCN(C)CC3)cc2)cc1Nc1nccc(-c2cccnc2)n1 [Imatinib] + Nc1nc2[nH]cc(CCc3ccc(C(=O)N[C@@H](CCC(=O)O)C(=O)O)cc3)c2c(=O)[nH]1 [Pemetrexed] (partner 0.2 µM)
Summary of the method: as §1

Cell Line	relative viability (Imatinib + Pictilisib; first compound 0.02 µM)	relative viability (Imatinib + Pictilisib; first compound 0.06325 µM)	relative viability (Imatinib + Pictilisib; first compound 0.2 µM)	relative viability (Imatinib + Pictilisib; first compound 0.6325 µM)	relative viability (Imatinib + Pictilisib; first compound 2 µM)	relative viability (Imatinib + Bortezomib; first compound 0.02 µM)	relative viability (Imatinib + Bortezomib; first compound 0.06325 µM)	relative viability (Imatinib + Bortezomib; first compound 0.2 µM)	relative viability (Imatinib + Bortezomib; first compound 0.6325 µM)	relative viability (Imatinib + Bortezomib; first compound 2 µM)	relative viability (Imatinib + Lapatinib; first compound 0.02 µM)	relative viability (Imatinib + Lapatinib; first compound 0.06325 µM)	relative viability (Imatinib + Lapatinib; first compound 0.2 µM)	relative viability (Imatinib + Lapatinib; first compound 0.6325 µM)	relative viability (Imatinib + Lapatinib; first compound 2 µM)	relative viability (Imatinib + Pemetrexed; first compound 0.02 µM)	relative viability (Imatinib + Pemetrexed; first compound 0.06325 µM)	relative viability (Imatinib + Pemetrexed; first compound 0.2 µM)	relative viability (Imatinib + Pemetrexed; first compound 0.6325 µM)	relative viability (Imatinib + Pemetrexed; first compound 2 µM)
NCI-H1666	0.327	0.406	0.381	0.48	0.393	0.76	0.796	0.837	0.859	0.652	0.679	0.811	0.565	0.748	0.844	0.902	0.906	0.897	0.842	0.842
PC-14	0.69		0.874	0.688	0.859	0.923	0.911	0.96	0.949	0.844	0.388	0.24	0.301	0.321	0.317	0.143	0.16	0.135	0.131	0.137
NCI-H596	0.416	0.375	0.42	0.394	0.388	1.2	1.02		0.944		1.17	1.29	1.13		1.03	0.497	0.507	0.509	0.466	0.487
NCI-H460	0.465	0.277	0.335	0.506	0.3	1.5	1.33	1.7	0.92		1.41	0.872	1.36	1.17	1.09	0.0572	0.0576	0.0551	0.0623	0.0654
CAL-12T	0.507	0.433	0.486	0.667	0.524	1.07	1.1	0.927	0.968	1.02	0.631	0.609	0.938	0.705	0.667	1.35	1.33	1.25	1.32	1.28
NCI-H3122	0.647	0.551	0.572	0.666	0.679	0.985	1.06	1.04	0.96	1.05	1.03	1.04		1.02	0.989	0.202	0.211	0.198	0.185	0.2
A-427	0.749		0.692	0.739	0.663	1.11		1.11	1.05	0.853			1.05	1.12	0.952	1.05	1.08	1.02		0.971
LU99A	0.353	0.333	0.3	0.354	0.335	1.34	1.19	1.08	1.23	1.03	1.14	1.08	0.986	0.99	1.18	0.161	0.206	0.157	0.232	0.313
NCI-H2087	1.13	0.44	0.796		0.858	0.868	0.963	0.689	0.727	0.604	1.06	0.654	1.21	1.05		0.692		0.749	0.58	

Reference: the supplement of paper PMC10307832
